Source: patent US6682896B1, “Peptides representing epitopic sites on r-IFN-β, antibodies thereto and uses thereof” (Schering Aktiengesellschaft, priority 1988, dated 2004)

Legend:
Settings in all cases: 50 μg peptide per well dried to well; goat anti-mouse/HRP, ABTS
[1] = test system: neutralizing mAb A5; assay: ELISA binding of mAb A5 to plate-dried synthetic peptides
Protocol: (§1) A series of enzyme-linked immunosorbent assays (ELISA) were run in which a panel of three neutralizing mab's, identified as A1, A5 and A7 (developed by […] Grossberg at the Medical College of Wisconsin) and a single non-neutralizing mAb, identified as B2b (received from Medical College of Wisconsin, […] and S. Grossberg), was assessed for binding to synthetic peptides IB, IC, IE, and a control. In each case, the peptide was dissolved in 0.05M Tris buffer, pH 9.5 and aliquoted in 100 μl volumes to wells of a microtiter plate (Corning) at a concentration of 50 μg peptide per well. The plate was placed in a vacuum dessicator overnight to dry the peptide to the well. Standard ELISA procedures were followed after the overnight coupling, i.e. common blocking steps, washes, incubation conditions and color development of the appropriate goat anti-mouse/horseradish peroxidase conjugate with ABTS substrate. […] The non neutralizing mAb B2b reacted with peptides IB and IC but not with IE.

[2] = test system: neutralizing mAb A7; assay: ELISA binding of mAb A7 to plate-dried synthetic peptides
Protocol: as §1

[3] = test system: non-neutralizing mAb B2b; assay: ELISA binding of mAb B2b to plate-dried synthetic peptides
Protocol: as §1

H-IPEEIKQL-OH [peptide IE, NH2-Ile-Pro-Glu-Glu-Ile-Lys-Gln-Leu-COOH]
Reaction (binding) of mAb A5 with peptide in ELISA [1]: preferential binding
Reaction (binding) of mAb A7 with peptide in ELISA [2]: virtually no activity
Reaction (binding) of non-neutralizing mAb B2b with peptide in ELISA [3]: not with IE
